ChEMBL document CHEMBL5291721, “A preclinical secondary pharmacology resource illuminates target-adverse drug reaction associations of marketed drugs” (Nat Commun, 2023)

Tests used:
[1] = biological target: Beta-1 adrenergic receptor (Homo sapiens, UniProt P08588); format: functional
[2] = biological target: T1, Type-1 angiotensin II receptor (Homo sapiens, UniProt P30556)
T1 sequence (P30556 whole entry): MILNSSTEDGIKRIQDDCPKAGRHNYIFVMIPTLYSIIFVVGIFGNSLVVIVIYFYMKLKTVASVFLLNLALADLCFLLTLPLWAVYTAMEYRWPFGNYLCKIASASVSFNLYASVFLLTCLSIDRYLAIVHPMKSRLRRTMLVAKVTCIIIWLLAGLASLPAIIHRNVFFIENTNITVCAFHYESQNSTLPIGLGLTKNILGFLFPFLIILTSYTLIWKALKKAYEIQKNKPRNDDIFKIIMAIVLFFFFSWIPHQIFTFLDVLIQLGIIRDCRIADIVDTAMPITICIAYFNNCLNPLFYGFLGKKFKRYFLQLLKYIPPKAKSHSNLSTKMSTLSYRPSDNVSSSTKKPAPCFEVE

B2 bradykinin receptor = biological target: T2, B2 bradykinin receptor (Homo sapiens, UniProt P30411)
T2 sequence (P30411 whole entry): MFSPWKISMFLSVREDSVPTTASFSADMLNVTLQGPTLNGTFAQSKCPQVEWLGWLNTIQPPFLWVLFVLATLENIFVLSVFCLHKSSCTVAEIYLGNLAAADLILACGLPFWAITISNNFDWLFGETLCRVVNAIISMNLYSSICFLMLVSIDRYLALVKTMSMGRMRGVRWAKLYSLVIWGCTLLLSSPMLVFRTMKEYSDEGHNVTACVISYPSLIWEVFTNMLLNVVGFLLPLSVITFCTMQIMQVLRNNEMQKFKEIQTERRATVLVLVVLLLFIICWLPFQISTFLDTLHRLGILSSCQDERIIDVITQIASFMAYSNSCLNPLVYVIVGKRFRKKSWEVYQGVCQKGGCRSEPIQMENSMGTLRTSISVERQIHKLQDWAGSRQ

[3] = biological target: T3, Muscarinic acetylcholine receptor M1 (Homo sapiens, UniProt P11229); format: functional
T3 sequence (P11229 whole entry): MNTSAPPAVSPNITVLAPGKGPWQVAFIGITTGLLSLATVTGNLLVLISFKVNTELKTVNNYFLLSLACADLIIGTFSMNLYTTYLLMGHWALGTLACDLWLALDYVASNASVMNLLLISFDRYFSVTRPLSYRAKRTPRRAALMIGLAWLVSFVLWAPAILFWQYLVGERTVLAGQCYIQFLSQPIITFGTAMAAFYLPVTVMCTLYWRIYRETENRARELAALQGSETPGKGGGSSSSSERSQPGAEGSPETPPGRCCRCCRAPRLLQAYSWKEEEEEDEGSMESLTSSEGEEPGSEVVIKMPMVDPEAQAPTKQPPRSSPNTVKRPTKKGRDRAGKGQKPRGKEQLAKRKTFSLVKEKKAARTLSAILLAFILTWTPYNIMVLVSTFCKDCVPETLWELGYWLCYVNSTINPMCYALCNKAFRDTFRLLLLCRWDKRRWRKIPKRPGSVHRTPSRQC

[4] = biological target: Muscarinic acetylcholine receptor M3 (Homo sapiens, UniProt P20309)
Estrogen receptor = biological target: T4, Estrogen receptor (Homo sapiens, UniProt P03372)
T4 sequence (P03372 whole entry): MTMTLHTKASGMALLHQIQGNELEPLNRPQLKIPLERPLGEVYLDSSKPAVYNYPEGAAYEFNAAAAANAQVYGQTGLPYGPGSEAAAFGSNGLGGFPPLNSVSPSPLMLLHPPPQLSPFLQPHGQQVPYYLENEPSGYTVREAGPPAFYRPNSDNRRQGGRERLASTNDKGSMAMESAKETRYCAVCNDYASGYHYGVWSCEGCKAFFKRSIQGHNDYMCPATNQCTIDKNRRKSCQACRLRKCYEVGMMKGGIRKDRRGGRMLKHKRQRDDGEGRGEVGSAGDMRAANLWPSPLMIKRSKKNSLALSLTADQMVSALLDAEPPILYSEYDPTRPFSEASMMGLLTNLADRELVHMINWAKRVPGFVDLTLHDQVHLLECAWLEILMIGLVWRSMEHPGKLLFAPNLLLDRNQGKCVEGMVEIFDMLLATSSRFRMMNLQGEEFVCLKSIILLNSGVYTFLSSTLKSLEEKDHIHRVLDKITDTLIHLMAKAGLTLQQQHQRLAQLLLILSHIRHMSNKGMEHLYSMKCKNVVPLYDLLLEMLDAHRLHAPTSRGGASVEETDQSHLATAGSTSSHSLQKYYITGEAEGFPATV

[5] = biological target: Gamma-aminobutyric acid receptor subunit alpha-1 (Rattus norvegicus, UniProt P62813); format: functional
Histamine H1 receptor = Histamine H1 receptor (Homo sapiens, UniProt P35367)
Melanocortin receptor 3 = Melanocortin receptor 3 (Homo sapiens, UniProt P41968)
Motilin receptor = Motilin receptor (Homo sapiens, UniProt O43193)
[6] = biological target: T5, Neuropeptide Y receptor type 1 (Homo sapiens, UniProt P25929); settings: read-out: AC50
T5 sequence (P25929 whole entry): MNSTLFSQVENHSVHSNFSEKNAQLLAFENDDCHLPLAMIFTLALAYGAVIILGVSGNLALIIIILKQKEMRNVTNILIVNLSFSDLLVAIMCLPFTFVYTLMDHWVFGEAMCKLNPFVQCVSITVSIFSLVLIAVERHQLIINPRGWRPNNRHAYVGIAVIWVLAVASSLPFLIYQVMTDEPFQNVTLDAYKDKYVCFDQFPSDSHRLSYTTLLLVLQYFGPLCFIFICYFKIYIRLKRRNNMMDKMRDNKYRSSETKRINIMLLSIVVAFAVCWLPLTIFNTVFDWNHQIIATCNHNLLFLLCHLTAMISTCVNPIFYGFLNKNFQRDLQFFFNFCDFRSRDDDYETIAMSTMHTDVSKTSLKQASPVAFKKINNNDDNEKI

[7] = biological target: Sodium-dependent dopamine transporter (Homo sapiens, UniProt Q01959)
[8] = biological target: Sodium-dependent noradrenaline transporter (Homo sapiens, UniProt P23975)
D(3) dopamine receptor = D(3) dopamine receptor (Homo sapiens, UniProt P35462)
Further: assay procedure not described here.

Sequence of Beta-1 adrenergic receptor (P08588 whole entry): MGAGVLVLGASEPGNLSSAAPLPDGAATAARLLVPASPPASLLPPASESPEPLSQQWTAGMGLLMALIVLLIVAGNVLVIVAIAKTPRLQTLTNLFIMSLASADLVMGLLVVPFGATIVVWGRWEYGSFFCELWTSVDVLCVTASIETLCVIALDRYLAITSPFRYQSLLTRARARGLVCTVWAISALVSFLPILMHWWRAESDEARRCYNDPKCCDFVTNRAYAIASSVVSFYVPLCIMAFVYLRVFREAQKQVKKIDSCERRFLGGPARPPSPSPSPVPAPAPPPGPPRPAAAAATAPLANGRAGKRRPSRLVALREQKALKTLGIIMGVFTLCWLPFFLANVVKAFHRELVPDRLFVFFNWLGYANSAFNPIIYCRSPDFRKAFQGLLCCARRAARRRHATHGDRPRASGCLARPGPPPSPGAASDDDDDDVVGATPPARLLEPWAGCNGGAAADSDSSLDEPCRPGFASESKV
Sequence of Melanocortin receptor 3 (P41968 whole entry): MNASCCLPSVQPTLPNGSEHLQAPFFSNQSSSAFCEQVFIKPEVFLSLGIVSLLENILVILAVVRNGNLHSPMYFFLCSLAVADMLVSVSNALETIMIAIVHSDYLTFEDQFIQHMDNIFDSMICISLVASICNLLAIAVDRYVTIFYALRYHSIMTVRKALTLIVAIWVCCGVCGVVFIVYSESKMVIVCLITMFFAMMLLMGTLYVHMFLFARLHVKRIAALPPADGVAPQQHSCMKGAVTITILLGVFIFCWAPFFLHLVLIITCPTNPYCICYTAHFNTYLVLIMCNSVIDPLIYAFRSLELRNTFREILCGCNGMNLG
Sequence of Muscarinic acetylcholine receptor M3 (P20309 whole entry): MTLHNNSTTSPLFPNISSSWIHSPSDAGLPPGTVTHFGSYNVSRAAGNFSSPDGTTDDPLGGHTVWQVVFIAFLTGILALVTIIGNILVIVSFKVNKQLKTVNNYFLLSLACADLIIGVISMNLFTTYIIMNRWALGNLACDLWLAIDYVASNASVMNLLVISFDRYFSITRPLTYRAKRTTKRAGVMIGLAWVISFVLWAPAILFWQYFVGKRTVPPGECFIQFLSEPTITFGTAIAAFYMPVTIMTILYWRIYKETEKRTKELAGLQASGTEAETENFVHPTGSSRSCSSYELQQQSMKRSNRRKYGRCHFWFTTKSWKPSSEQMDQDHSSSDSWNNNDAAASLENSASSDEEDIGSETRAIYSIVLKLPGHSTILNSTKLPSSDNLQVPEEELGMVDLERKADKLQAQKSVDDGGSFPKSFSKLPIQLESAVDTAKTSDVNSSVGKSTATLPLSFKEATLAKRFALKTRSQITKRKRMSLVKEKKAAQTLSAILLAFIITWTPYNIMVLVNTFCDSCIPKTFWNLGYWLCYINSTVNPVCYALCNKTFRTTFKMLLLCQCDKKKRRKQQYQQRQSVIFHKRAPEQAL
Sequence of Histamine H1 receptor (P35367 whole entry): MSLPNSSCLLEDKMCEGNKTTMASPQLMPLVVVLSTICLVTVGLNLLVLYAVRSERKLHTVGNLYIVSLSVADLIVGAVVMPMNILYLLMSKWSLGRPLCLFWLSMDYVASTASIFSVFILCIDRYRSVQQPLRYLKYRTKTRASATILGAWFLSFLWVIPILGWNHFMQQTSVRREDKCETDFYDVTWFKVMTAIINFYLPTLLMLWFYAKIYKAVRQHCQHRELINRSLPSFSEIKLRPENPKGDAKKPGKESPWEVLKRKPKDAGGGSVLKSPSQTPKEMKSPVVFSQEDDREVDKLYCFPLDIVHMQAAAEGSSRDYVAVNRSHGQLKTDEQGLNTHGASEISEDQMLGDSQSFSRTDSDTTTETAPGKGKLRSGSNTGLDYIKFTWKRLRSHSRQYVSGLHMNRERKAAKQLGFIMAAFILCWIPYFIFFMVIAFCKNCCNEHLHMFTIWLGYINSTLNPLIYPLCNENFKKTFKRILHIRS
Sequence of Sodium-dependent dopamine transporter (Q01959 whole entry): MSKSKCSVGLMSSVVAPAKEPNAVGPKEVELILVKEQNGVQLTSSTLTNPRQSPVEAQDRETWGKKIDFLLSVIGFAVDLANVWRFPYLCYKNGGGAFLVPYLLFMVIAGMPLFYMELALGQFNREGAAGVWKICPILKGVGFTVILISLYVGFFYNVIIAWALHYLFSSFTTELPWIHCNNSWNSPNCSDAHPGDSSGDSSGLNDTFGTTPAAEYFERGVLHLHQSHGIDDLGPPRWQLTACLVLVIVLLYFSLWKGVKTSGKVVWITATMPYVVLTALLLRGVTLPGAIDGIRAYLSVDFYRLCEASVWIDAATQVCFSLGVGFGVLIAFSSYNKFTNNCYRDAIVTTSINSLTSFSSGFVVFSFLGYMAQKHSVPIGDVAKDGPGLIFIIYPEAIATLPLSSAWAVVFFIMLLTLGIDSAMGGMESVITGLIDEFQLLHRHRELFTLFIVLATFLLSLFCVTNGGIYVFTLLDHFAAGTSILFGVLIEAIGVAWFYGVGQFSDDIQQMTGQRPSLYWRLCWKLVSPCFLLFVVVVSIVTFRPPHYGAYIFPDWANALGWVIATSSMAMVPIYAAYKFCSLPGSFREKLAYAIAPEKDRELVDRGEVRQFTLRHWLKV
Sequence of Motilin receptor (O43193 whole entry): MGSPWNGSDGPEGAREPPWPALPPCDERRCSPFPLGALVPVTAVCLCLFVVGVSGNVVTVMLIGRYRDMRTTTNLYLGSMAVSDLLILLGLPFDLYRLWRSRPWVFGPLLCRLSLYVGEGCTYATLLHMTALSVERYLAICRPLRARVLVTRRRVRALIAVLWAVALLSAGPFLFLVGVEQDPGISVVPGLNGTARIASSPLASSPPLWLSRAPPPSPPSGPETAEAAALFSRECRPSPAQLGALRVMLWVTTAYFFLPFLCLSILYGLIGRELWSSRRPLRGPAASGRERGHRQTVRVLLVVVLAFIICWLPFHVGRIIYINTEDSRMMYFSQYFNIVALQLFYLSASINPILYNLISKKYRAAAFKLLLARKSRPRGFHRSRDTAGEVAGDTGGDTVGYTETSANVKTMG
Sequence of Sodium-dependent noradrenaline transporter (P23975 whole entry): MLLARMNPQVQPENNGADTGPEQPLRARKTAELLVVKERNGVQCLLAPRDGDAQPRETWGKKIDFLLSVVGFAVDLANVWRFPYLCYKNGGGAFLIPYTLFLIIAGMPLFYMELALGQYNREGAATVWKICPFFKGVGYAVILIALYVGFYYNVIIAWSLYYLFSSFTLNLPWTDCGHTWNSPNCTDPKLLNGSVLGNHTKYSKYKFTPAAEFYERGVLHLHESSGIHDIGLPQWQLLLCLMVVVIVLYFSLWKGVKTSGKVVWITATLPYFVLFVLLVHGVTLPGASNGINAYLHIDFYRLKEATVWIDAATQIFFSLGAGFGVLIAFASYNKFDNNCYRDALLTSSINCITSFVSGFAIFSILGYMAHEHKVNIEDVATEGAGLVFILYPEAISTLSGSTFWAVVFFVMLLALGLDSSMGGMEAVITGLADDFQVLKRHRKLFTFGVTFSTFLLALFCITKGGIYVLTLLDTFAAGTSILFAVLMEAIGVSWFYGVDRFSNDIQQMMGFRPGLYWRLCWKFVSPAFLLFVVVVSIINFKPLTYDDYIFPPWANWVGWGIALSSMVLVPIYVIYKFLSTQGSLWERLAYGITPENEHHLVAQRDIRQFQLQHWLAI
Sequence of D(3) dopamine receptor (P35462 whole entry): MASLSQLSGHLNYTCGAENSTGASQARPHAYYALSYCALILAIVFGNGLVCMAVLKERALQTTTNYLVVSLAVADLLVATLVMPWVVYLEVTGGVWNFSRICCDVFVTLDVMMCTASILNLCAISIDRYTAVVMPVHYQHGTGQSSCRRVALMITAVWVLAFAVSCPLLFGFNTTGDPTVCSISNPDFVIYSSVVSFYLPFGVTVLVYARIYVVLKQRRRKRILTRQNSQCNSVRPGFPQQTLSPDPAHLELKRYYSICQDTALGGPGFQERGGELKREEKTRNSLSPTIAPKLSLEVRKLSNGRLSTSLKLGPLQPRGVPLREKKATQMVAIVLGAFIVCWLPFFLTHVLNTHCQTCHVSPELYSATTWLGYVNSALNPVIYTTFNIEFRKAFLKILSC
Sequence of Gamma-aminobutyric acid receptor subunit alpha-1 (P62813 whole entry): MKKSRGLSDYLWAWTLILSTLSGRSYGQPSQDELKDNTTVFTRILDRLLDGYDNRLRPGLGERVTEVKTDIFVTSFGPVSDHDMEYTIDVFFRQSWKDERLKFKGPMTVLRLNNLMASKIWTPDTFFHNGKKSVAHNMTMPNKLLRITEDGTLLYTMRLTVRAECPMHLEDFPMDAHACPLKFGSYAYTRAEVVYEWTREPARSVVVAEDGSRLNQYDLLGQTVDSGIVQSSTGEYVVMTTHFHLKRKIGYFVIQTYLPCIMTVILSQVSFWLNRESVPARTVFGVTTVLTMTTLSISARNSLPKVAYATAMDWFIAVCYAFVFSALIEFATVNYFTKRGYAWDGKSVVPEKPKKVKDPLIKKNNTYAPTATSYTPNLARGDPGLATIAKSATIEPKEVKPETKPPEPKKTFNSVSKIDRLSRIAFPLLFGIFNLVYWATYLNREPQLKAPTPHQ

SMILES | AC50 [1] [µM] | AC50 [2] [µM] | AC50 (B2 bradykinin receptor) [µM] | AC50 [3] [µM] | AC50 [4] [µM] | AC50 (Estrogen receptor) [µM] | AC50 [5] [µM] | AC50 (Histamine H1 receptor) [µM] | AC50 (Melanocortin receptor 3) [µM] | AC50 (Motilin receptor) [µM] | AC50 [6] [µM] | AC50 [7] [µM] | AC50 [8] [µM] | AC50 (D(3) dopamine receptor) [µM]
COc1ccc2nc3cc(Cl)ccc3c(Nc3cc(CN4CCCC4)c(O)c(CN4CCCC4)c3)c2n1 [PYRONARIDINE] | > 30 | > 30 | > 30 | > 30 | 25 | > 30 | > 30 | 21 | > 30 | > 30 | > 30 | 11 | 8.1 | 21
CCCCCC(=O)O[C@]1(C(C)=O)CC[C@H]2[C@@H]3CCC4=CC(=O)CC[C@]4(C)[C@H]3CC[C@@]21C [HYDROXYPROGESTERONE CAPROATE] | > 30 | > 30 | > 9.99 | > 30 | > 30 | > 30 | > 30 | > 30 | > 30 | 28.1 | > 30 | 21.3 | > 30 | > 30
CC(=O)[C@@]1(O)CC[C@H]2[C@@H]3C=C(Cl)C4=CC(=O)[C@@H]5C[C@@H]5[C@]4(C)[C@H]3CC[C@@]21C [CYPROTERONE] | > 10 | > 30 | > 10 | > 10 | > 30 | > 30 | > 10 | > 10 | > 10 | > 10 | > 10 | > 10 | > 10 | > 30
CC1=C(C)C(=O)C(C(CCCCCC(=O)O)c2ccccc2)=C(C)C1=O (stereo not drawn) [SERATRODAST] | > 30 | > 30 | > 30 | > 30 | > 30 | > 30 | > 30 | > 30 | > 30 | > 30 | > 30 | > 30 | > 30 | > 30
C[N@+]1(CCF)[C@@H]2CC[C@H]1C[C@@H](OC(=O)C(O)(c1ccccc1)c1ccccc1)C2 | > 30 | > 30 | > 30 | 0.0066 | 0.0031 | > 30 | > 30 | 15 | > 30 | > 30 | > 30 | > 30 | > 30 | > 30
COc1cc2c(cc1OC)C(CCc1ccc(Cl)cc1)N(C)CC2 (stereo not drawn) [METHOPHOLINE] | > 30 | > 30 | > 30 | > 10 | > 30 | > 30 | > 10 | > 10 | > 30 | > 30 | > 30 | 28.7 | > 30 | > 30
CC(=O)SC[C@@H](C)C(=O)N1CCC[C@H]1C(=O)N[C@@H](Cc1ccccc1)C(=O)O | > 30 | > 30 | > 30 | > 30 | > 30 | > 30 | > 30 | > 30 | > 30 | > 30 | > 30 | > 30 | > 30 | > 30
